The NIST ThermoML archive (doi:10.1021/je500784s)
Where “and” joins values, the source holds several entries; their conditions need not be identical. Equal values may be shown once. ± gives the expanded uncertainty stated by the source.

How the values were obtained:
[1] = for vapor or sublimation pressure: Transpiration method; for Normal melting temperature: DTA
[2] = Molar enthalpy of transition or fusion; conditions: Crystal; DSC

Cc1ccccc1Br [2-bromotoluene]
[1], Liquid
Conditions | vapor or sublimation pressure
281.2 K | 0.04946 ± 0.0031 kPa
284.2 K | 0.06067 ± 0.0037 kPa
285.2 K | 0.06568 ± 0.0041 kPa
287.2 K | 0.07592 ± 0.0047 kPa and 0.07526 ± 0.0047 kPa
290.2 K | 0.09238 ± 0.0056 kPa
293.2 K | 0.1131 ± 0.0069 kPa
296.2 K | 0.1381 ± 0.0084 kPa
299.2 K | 0.1684 ± 0.01 kPa
302.2 K | 0.2053 ± 0.013 kPa
305.2 K | 0.25 ± 0.015 kPa
308.2 K | 0.3008 ± 0.018 kPa [middle of 4 runs]
313.1 K | 0.3903 ± 0.023 kPa [middle of 6 runs]

Cc1cccc(C)c1I [1-iodo-2,6-dimethylbenzene]
[1], Liquid
Conditions | vapor or sublimation pressure [kPa]
284.5 K | 0.005 ± 0.00035
288.4 K | 0.00709 ± 0.00046
291.6 K | 0.00925 ± 0.00061
296.5 K | 0.014 ± 0.00086
298.4 K | 0.01572 ± 0.00095
299.5 K | 0.01696 ± 0.0011
301.5 K | 0.01972 ± 0.0013
303.3 K | 0.02303 ± 0.0015
306.4 K | 0.02867 ± 0.0018
308.3 K | 0.03267 ± 0.0021
311.4 K | 0.04222 ± 0.0026
313.6 K | 0.04835 ± 0.0029
316.4 K | 0.05818 ± 0.0035
318.4 K | 0.06657 ± 0.0041
321.2 K | 0.08028 ± 0.0049
323.4 K | 0.09228 ± 0.0057
326.3 K | 0.1123 ± 0.0068
328.5 K | 0.1277 ± 0.0077
331.3 K | 0.1526 ± 0.0091
333.4 K | 0.1721 ± 0.01

Cc1ccccc1I [1-iodo-2-methylbenzene]
[1], Liquid
Conditions | vapor or sublimation pressure [kPa]
283.2 K | 0.01623 ± 0.0011
288.2 K | 0.02387 ± 0.0015
293.2 K | 0.0355 ± 0.0023
301.2 K | 0.06212 ± 0.0037
304.2 K | 0.07615 ± 0.0047
307.4 K | 0.0943 ± 0.0057
310.3 K | 0.1131 ± 0.0068
313.1 K | 0.1354 ± 0.0082
316.2 K | 0.1655 ± 0.01
319.3 K | 0.1983 ± 0.012
322.1 K | 0.2325 ± 0.014
325.1 K | 0.2843 ± 0.017

Brc1ccccc1 [bromobenzene]
[1], Liquid
Conditions | vapor or sublimation pressure [kPa]
276.4 K | 0.1345 ± 0.0084
278.3 K | 0.1534 ± 0.0094
282.2 K | 0.1957 ± 0.012
283.1 K | 0.2092 ± 0.013
285.4 K | 0.2487 ± 0.015
286.2 K | 0.2532 ± 0.015
288.3 K | 0.2954 ± 0.018
289.3 K | 0.3211 ± 0.019
291.4 K | 0.3549 ± 0.021
292.4 K | 0.3794 ± 0.024
293.2 K | 0.4046 ± 0.025
294.4 K | 0.4413 ± 0.026
295.5 K | 0.4596 ± 0.028
297.4 K | 0.5225 ± 0.032
300.4 K | 0.6407 ± 0.039
303.4 K | 0.7604 ± 0.045

Cc1ccc(I)cc1 [4-iodotoluene]
Conditions | Molar enthalpy of transition or fusion [kcal/mol]
[2] | 3.59 ± 0.167

[1]
Conditions | vapor or sublimation pressure
279.5 K, Crystal | 0.00537 ± 0.0004 kPa
283.3 K, Crystal | 0.008 ± 0.00055 kPa
286.3 K, Crystal | 0.01101 ± 0.00074 kPa
289.4 K, Crystal | 0.01456 ± 0.00097 kPa
293.2 K, Crystal | 0.0205 ± 0.0014 kPa and 0.02183 ± 0.0015 kPa
298.1 K, Crystal | 0.0335 ± 0.0023 kPa
303 K, Crystal | 0.0526 ± 0.0033 kPa
308 K, Liquid | 0.08115 ± 0.0051 kPa
311 K, Liquid | 0.09922 ± 0.006 kPa
315 K, Liquid | 0.1261 ± 0.0075 kPa
319.1 K, Liquid | 0.1599 ± 0.0095 kPa
323.2 K, Liquid | 0.2025 ± 0.012 kPa
328.1 K, Liquid | 0.2776 ± 0.017 kPa
332.9 K, Liquid | 0.3665 ± 0.021 kPa

Conditions | Normal melting temperature [°C]
[1], Crystal | 34.4 ± 0.5

Cc1cccc(C)c1Br [2-bromo-1,3-dimethylbenzene]
[1], Liquid
Conditions | vapor or sublimation pressure
274.2 K | 0.00695 ± 0.00048 kPa
276.2 K | 0.0084 ± 0.00056 kPa
278.3 K | 0.01013 ± 0.00066 kPa
281.2 K | 0.01282 ± 0.00081 kPa
284.2 K | 0.0161 ± 0.001 kPa
287.2 K | 0.02071 ± 0.0013 kPa
290.2 K | 0.02551 ± 0.0016 kPa
293.3 K | 0.0317 ± 0.002 kPa and 0.03214 ± 0.002 kPa
293.4 K | 0.03244 ± 0.002 kPa
296.3 K | 0.03998 ± 0.0025 kPa
299.3 K | 0.04922 ± 0.0031 kPa
302.2 K | 0.06313 ± 0.004 kPa
305.3 K | 0.07815 ± 0.0047 kPa

Cc1ccc(I)c(C)c1 [1-iodo-2,4-dimethylbenzene]
[1], Liquid
Conditions | vapor or sublimation pressure
293.5 K | 0.00972 ± 0.00065 kPa
298.4 K | 0.01434 ± 0.0009 kPa
301.4 K | 0.01827 ± 0.0012 kPa
303.4 K | 0.02175 ± 0.0014 kPa
306.3 K | 0.02654 ± 0.0016 kPa
308.3 K | 0.03017 ± 0.0019 kPa
311.3 K | 0.03876 ± 0.0024 kPa
313.3 K | 0.04322 ± 0.0027 kPa
316.4 K | 0.05407 ± 0.0033 kPa
318.6 K | 0.06284 ± 0.0038 kPa
321.4 K | 0.07438 ± 0.0044 kPa
323.4 K | 0.08333 ± 0.0052 kPa
326.4 K | 0.1058 ± 0.0064 kPa and 0.1032 ± 0.0062 kPa
328.5 K | 0.1158 ± 0.0066 kPa

Cc1ccc(Br)cc1 [4-bromotoluene]
Conditions | Molar enthalpy of transition or fusion [kcal/mol]
[2] | 3.56 ± 0.167

[1]
Conditions | vapor or sublimation pressure [kPa]
274.5 K, Crystal | 0.01409 ± 0.001
277.2 K, Crystal | 0.01853 ± 0.0012
278.3 K, Crystal | 0.02013 ± 0.0014
280.2 K, Crystal | 0.02439 ± 0.0016
282.2 K, Crystal | 0.02935 ± 0.0019
283.2 K, Crystal | 0.0328 ± 0.0023
285.5 K, Crystal | 0.04128 ± 0.0027
286.2 K, Crystal | 0.04379 ± 0.0028
288.3 K, Crystal | 0.05178 ± 0.0033
289.6 K, Crystal | 0.05809 ± 0.004
291.2 K, Crystal | 0.06948 ± 0.0046
294.3 K, Crystal | 0.08957 ± 0.0058
297.3 K, Crystal | 0.1161 ± 0.0072
298.2 K, Crystal | 0.1223 ± 0.0079
299.2 K, Crystal | 0.1357 ± 0.0089
300.8 K, Crystal | 0.1543 ± 0.0097
301.9 K, Liquid | 0.1746 ± 0.011
304.2 K, Liquid | 0.1989 ± 0.012
304.9 K, Liquid | 0.2137 ± 0.013
307.2 K, Liquid | 0.2422 ± 0.015
310.3 K, Liquid | 0.2964 ± 0.018
313.2 K, Liquid | 0.3477 ± 0.02
314.4 K, Liquid | 0.3671 ± 0.021
316.3 K, Liquid | 0.4044 ± 0.024
317.5 K, Liquid | 0.4335 ± 0.026
319.3 K, Liquid | 0.4827 ± 0.028
320.6 K, Liquid | 0.507 ± 0.03
322.4 K, Liquid | 0.5742 ± 0.034
325.3 K, Liquid | 0.6696 ± 0.04
328.2 K, Liquid | 0.7835 ± 0.045
331.3 K, Liquid | 0.8879 ± 0.051
332.3 K, Liquid | 0.9409 ± 0.056
335.3 K, Liquid | 1.1 ± 0.06

Conditions | Normal melting temperature [°C]
[1], Crystal | 28.2 ± 0.5

Cc1cccc(I)c1 [1-iodo-3-methylbenzene]
[1], Liquid
Conditions | vapor or sublimation pressure
275.7 K | 0.00715 ± 0.00046 kPa
279.3 K | 0.00936 ± 0.00058 kPa
281.9 K | 0.01131 ± 0.00069 kPa
283.5 K | 0.01241 ± 0.00079 kPa
286.4 K | 0.0157 ± 0.00099 kPa
289.3 K | 0.01945 ± 0.0013 kPa and 0.01996 ± 0.0013 kPa
293.1 K | 0.02757 ± 0.0018 kPa
293.2 K | 0.02683 ± 0.0018 kPa
298.1 K | 0.0403 ± 0.0025 kPa
298.2 K | 0.03887 ± 0.0024 kPa
302.9 K | 0.05424 ± 0.0034 kPa and 0.05679 ± 0.0035 kPa
308 K | 0.07665 ± 0.0047 kPa and 0.07718 ± 0.0047 kPa
313.1 K | 0.1065 ± 0.0063 kPa

Cc1cccc(Br)c1 [1-bromo-3-methylbenzene]
[1], Liquid
Conditions | vapor or sublimation pressure
274.2 K | 0.02006 ± 0.0013 kPa
276.2 K | 0.0234 ± 0.0015 kPa
278.2 K | 0.02748 ± 0.0017 kPa
278.3 K | 0.02776 ± 0.0017 kPa
279.2 K | 0.0289 ± 0.0019 kPa
280.3 K | 0.03259 ± 0.0022 kPa
281.3 K | 0.0351 ± 0.0021 kPa
282.2 K | 0.03686 ± 0.0022 kPa
282.5 K | 0.03833 ± 0.0023 kPa
284.2 K | 0.0421 ± 0.0026 kPa and 0.04171 ± 0.0026 kPa
287.2 K | 0.05299 ± 0.0033 kPa
287.3 K | 0.0526 ± 0.0033 kPa
290.2 K | 0.06611 ± 0.0042 kPa
290.4 K | 0.06761 ± 0.0043 kPa
293.2 K | 0.08432 ± 0.0051 kPa
293.6 K | 0.08569 ± 0.0051 kPa
296.2 K | 0.09718 ± 0.0076 kPa
296.7 K | 0.1039 ± 0.0078 kPa
299.2 K | 0.1199 ± 0.0085 kPa
299.8 K | 0.1279 ± 0.0079 kPa
302.2 K | 0.1478 ± 0.0088 kPa
302.8 K | 0.1548 ± 0.0095 kPa
305.2 K | 0.18 ± 0.011 kPa
308.2 K | 0.2084 ± 0.012 kPa and 0.2115 ± 0.012 kPa and 0.2068 ± 0.012 kPa

Ic1ccccc1 [iodobenzene]
[1], Liquid
Conditions | vapor or sublimation pressure [kPa]
283.8 K | 0.05269 ± 0.0032
286.8 K | 0.06386 ± 0.004
289.9 K | 0.08034 ± 0.0049
293 K | 0.09644 ± 0.0057
294 K | 0.1029 ± 0.0065
296.8 K | 0.1261 ± 0.0077
299.6 K | 0.1487 ± 0.0091
302.6 K | 0.1853 ± 0.011
305.7 K | 0.2226 ± 0.013
308.7 K | 0.2722 ± 0.016
311.8 K | 0.3239 ± 0.02
314.6 K | 0.3944 ± 0.024
